Source: ChEMBL document CHEMBL6071181, “Discovery of ZLC491 as a Potent, Selective, and Orally Bioavailable CDK12/13 PROTAC Degrader” (J Med Chem, 2024)
Each block holds one molecule with its values, some of them ahead of it. The source made the active and inactive calls. The rule behind the calls is not given here.

Assays:
[1] = target: T1, Protein cereblon/Cyclin-dependent kinase 12 (Homo sapiens) (UniProt Q9NYV4+Q96SW2); experiment: PROTAC activity at CRBN/CDK12 in human MDA-MB-231 cells assessed as induction of CDK12 degradation at 0.3 uM incubated for 15 hrs by immunoblotting analysis relative to control; format: cell-based
Target sequence in this assay (Q96SW2 whole entry, looked up, chain 1 of 2): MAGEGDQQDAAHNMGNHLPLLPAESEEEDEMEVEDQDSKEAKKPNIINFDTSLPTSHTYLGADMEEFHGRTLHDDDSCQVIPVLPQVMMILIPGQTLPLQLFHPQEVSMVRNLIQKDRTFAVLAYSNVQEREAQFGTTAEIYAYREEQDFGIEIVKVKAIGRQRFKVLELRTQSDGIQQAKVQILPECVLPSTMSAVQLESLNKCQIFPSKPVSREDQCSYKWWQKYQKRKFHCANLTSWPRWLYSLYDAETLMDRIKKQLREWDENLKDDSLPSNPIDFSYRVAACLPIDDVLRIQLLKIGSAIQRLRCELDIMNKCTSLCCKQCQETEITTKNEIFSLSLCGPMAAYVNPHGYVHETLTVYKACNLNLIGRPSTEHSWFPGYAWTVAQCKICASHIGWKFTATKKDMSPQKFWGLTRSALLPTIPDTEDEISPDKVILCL
Target sequence in this assay (Q9NYV4 whole entry, looked up, chain 2 of 2): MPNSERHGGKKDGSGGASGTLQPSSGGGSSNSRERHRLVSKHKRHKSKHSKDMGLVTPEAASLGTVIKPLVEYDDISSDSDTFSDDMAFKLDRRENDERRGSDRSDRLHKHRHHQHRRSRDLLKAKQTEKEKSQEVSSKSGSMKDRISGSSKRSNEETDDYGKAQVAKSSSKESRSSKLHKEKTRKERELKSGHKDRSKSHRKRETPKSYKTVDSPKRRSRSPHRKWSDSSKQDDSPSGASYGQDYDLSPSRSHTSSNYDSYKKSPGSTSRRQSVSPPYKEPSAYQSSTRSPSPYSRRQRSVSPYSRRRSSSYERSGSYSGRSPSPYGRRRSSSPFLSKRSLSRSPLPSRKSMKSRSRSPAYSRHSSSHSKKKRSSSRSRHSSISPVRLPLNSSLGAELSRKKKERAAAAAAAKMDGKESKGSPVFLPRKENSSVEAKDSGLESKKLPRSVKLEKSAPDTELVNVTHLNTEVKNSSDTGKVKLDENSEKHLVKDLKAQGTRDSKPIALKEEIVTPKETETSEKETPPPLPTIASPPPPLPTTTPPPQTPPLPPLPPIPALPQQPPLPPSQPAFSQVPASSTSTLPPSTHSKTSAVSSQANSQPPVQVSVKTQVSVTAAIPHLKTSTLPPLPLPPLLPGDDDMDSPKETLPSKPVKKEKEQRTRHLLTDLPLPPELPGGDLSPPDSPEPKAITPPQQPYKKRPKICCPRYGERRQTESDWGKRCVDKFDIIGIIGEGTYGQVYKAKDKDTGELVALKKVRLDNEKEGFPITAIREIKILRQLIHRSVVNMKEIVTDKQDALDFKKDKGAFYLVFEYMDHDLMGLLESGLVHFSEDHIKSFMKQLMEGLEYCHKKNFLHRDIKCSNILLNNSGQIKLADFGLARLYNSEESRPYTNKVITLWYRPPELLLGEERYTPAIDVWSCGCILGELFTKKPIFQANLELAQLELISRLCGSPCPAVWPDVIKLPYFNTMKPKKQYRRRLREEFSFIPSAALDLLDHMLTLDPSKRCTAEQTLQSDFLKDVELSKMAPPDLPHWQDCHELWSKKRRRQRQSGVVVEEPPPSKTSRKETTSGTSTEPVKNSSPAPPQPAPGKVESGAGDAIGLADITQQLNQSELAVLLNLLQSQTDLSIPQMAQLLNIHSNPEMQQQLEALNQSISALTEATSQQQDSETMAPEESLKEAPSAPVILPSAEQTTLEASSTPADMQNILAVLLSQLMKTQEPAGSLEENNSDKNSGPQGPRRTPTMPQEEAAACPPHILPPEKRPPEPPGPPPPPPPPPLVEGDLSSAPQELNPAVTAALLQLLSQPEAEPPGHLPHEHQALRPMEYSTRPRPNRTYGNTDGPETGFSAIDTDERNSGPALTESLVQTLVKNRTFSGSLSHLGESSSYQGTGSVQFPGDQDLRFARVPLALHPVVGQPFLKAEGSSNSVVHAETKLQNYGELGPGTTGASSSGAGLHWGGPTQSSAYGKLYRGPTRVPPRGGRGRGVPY

[2] = target: T2, Protein cereblon/Cyclin-dependent kinase 13 (Homo sapiens) (UniProt Q14004+Q96SW2); experiment: PROTAC activity at CRBN/CDK13 in human MDA-MB-231 cells assessed as induction of CDK13 degradation at 0.3 uM incubated for 15 hrs by immunoblotting analysis relative to control; format: cell-based
Target sequence in this assay (Q96SW2 whole entry, looked up, chain 1 of 2): as the sequence (Q96SW2 whole entry, looked up, chain 1 of 2) above
Target sequence in this assay (Q14004 whole entry, looked up, chain 2 of 2): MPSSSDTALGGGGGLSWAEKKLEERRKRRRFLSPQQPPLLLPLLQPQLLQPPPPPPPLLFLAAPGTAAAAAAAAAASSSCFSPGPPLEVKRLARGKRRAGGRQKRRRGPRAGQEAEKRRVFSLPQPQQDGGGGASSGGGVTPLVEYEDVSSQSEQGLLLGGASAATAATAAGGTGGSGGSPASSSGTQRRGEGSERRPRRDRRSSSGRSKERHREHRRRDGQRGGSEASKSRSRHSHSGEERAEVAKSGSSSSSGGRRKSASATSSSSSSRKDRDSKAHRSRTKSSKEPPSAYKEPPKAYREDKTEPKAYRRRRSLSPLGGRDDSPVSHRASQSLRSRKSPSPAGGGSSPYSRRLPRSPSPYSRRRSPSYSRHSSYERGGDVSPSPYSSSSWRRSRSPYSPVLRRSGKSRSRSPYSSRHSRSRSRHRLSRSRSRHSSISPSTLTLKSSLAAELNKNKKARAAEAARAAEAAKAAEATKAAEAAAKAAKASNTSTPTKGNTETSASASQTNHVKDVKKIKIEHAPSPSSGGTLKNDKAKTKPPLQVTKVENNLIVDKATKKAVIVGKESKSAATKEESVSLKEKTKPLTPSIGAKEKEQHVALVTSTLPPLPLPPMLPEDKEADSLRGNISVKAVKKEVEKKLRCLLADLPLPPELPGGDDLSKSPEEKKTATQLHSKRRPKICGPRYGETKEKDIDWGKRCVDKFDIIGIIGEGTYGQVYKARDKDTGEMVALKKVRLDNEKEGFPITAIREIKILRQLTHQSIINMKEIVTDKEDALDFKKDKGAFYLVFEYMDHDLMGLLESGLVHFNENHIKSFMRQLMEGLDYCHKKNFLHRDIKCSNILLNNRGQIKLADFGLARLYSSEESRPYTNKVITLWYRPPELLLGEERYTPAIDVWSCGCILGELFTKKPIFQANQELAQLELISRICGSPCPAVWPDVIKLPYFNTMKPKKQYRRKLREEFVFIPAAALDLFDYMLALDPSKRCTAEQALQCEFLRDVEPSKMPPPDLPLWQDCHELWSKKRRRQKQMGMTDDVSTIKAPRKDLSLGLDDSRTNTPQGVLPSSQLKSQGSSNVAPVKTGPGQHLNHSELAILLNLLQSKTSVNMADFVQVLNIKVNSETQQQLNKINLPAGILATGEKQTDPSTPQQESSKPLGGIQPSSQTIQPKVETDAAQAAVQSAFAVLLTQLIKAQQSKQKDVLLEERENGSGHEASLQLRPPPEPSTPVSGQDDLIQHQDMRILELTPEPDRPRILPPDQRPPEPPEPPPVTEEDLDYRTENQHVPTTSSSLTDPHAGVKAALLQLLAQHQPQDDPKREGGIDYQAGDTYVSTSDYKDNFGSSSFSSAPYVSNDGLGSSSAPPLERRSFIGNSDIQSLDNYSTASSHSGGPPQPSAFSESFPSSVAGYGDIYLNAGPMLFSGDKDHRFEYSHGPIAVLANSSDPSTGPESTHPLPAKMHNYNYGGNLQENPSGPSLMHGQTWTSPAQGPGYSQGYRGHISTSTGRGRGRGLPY

[3] = Half-life in Sprague-Dawley rat at 2.5 mg/kg, iv measured after 24 hrs by LC/MS/MS analysis; format: ADME, organism-based; conditions: in vivo
[4] = Cmax in Sprague-Dawley rat at 2.5 mg/kg, iv measured after 24 hrs by LC/MS/MS analysis; format: ADME, organism-based; conditions: in vivo
[5] = AUC (0 to t) in Sprague-Dawley rat at 2.5 mg/kg, iv measured after 24 hrs by LC/MS/MS analysis; format: ADME, organism-based; conditions: in vivo
[6] = Half-life in Sprague-Dawley rat at 10 mg/kg, po measured after 24 hrs by LC/MS/MS analysis; format: ADME, organism-based; conditions: in vivo
[7] = Cmax in Sprague-Dawley rat at 10 mg/kg, po measured after 24 hrs by LC/MS/MS analysis; format: ADME, organism-based; conditions: in vivo
[8] = AUC (0 to t) in Sprague-Dawley rat at 10 mg/kg, po measured after 24 hrs by LC/MS/MS analysis; format: ADME, organism-based; conditions: in vivo
[9] = target: T1, Protein cereblon/Cyclin-dependent kinase 12 (Homo sapiens); experiment: PROTAC activity at CRBN/CDK12 in human MDA-MB-231 cells assessed as induction of CDK12 degradation at 1 uM incubated for 10 hrs by immunoblotting analysis; format: cell-based
Target sequence in this assay (Q96SW2 whole entry, looked up): as the sequence (Q96SW2 whole entry, looked up, chain 1 of 2) above
Target sequence in this assay (Q9NYV4 whole entry, looked up): as the sequence (Q9NYV4 whole entry, looked up, chain 2 of 2) above

[10] = target: T2, Protein cereblon/Cyclin-dependent kinase 13 (Homo sapiens); experiment: PROTAC activity at CRBN/CDK13 in human MDA-MB-231 cells assessed as induction of CDK13 degradation at 1 uM incubated for 10 hrs by immunoblotting analysis; format: cell-based
Target sequence in this assay (Q14004 whole entry, looked up): as the sequence (Q14004 whole entry, looked up, chain 2 of 2) above
Target sequence in this assay (Q96SW2 whole entry, looked up): as the sequence (Q96SW2 whole entry, looked up, chain 1 of 2) above

MDA-MB-231 = experiment: Antiproliferative activity against human MDA-MB-231 cells assessed as inhibition of cell growth at 0.0001 to 100 uM incubated for 5 days by CCK8 assay; format: functional, cell-based; conditions: dose 0.0001-100 µM, time 5.0 day
HCC38 = experiment: Antiproliferative activity against human HCC38 cells assessed as inhibition of cell growth at 0.0001 to 100 uM incubated for 5 days by CCK8 assay; format: functional, cell-based; conditions: dose 0.0001-100 µM, time 5.0 day
MDA-MB-436 = experiment: Antiproliferative activity against human MDA-MB-436 cells assessed as inhibition of cell growth at 0.0001 to 100 uM incubated for 5 days by CCK8 assay; format: functional, cell-based; conditions: dose 0.0001-100 µM, time 5.0 day
MCF-10A = experiment: Antiproliferative activity against human MCF-10A cells assessed as inhibition of cell growth at 0.0001 to 100 uM incubated for 5 days by CCK8 assay; format: toxicity, cell-based; conditions: 120 h, dose 0.0001-100 µM, time 5 day
HEK293 = experiment: Antiproliferative activity against HEK293 cells assessed as inhibition of cell growth at 0.0001 to 100 uM incubated for 5 days by CCK8 assay; format: toxicity, cell-based; conditions: human, hek293, 120 h, dose 0.0001-100 µM, time 5 day
MRC5 = experiment: Antiproliferative activity against human MRC5 cells assessed as inhibition of cell growth at 0.0001 to 100 uM incubated for 5 days by CCK8 assay; format: toxicity, cell-based; conditions: mrc5, 120 h, dose 0.0001-100 µM, time 5 day

Activity [1]: 35%
Activity [2]: 38%
Molecule: 3-benzyl-1-((1r,4r)-4-((5-cyanopyridin-2-yl)amino)cyclohexyl)-1-(4-(4-(1-(2-(2,6-dioxopiperidin-3-yl)-1,3-dioxoisoindolin-5-yl)azetidine-3-carbonyl)piperazin-1-yl)phenyl)urea

half-life [3]: 2.38 h
Cmax [4]: 2590 ng/mL
AUC(0-t) at 24 h [5]: 4720 ng·h/mL
half-life [6]: 3.04 h
Cmax [7]: 308 ng/mL
AUC(0-t) at 24 h [8]: 3110 ng·h/mL
Molecule: N#Cc1ccc(N[C@H]2CC[C@H](N(C(=O)NCc3ccccc3)c3ccc(N4CCN(C5CCN(c6ccc7c(c6)C(=O)N(C6CCC(=O)NC6=O)C7=O)CC5)CC4)cc3)CC2)nc1 (stereo partly specified)

Activity [9]: inactive
Activity [10]: inactive
Molecule: CN1C(=O)CCC(N2C(=O)c3cc(F)c(N4CCC(N5CCN(c6ccc(N(C(=O)NCc7ccccc7)[C@H]7CC[C@H](Nc8ccc(C#N)cn8)CC7)cc6)CC5)CC4)cc3C2=O)C1=O (stereo partly specified)
Activity (MDA-MB-231): inactive
Activity (HCC38): inactive
Activity (MDA-MB-436): inactive
Activity (MCF-10A): Non-Toxic
Activity (HEK293): Non-Toxic
Activity (MRC5): Non-Toxic
